Holding throughout (test): microbe, parasite or virus in culture
In assay [1] the test system is Enterococcus faecium. The settings on record: read-out: Minimum inhibitory concentration.
The test system of assay [2] is Streptococcus agalactiae. The settings on record: read-out: Minimum inhibitory concentration.
Assay [3] relates to Prevotella intermedia. To be noted: read-out: Minimum inhibitory concentration.
In assay [4] the test system is Streptococcus mitis. The settings on record: read-out: Minimum inhibitory concentration.
The subject of assay [5] is Prevotella bivia. The settings on record: ATCC29303, read-out: Minimum inhibitory concentration.
For assay [6], the system named is Clostridium novyi. The settings on record: ATCC19402, read-out: Minimum inhibitory concentration.
In assay [7] the test system is Prevotella oralis. To be noted: Hoylesella oralis, read-out: Minimum inhibitory concentration.
In assay [8] the test system is Streptococcus oralis. To be noted: read-out: Minimum inhibitory concentration.
The test system of assay [9] is Fusobacterium nucleatum. The settings on record: read-out: Minimum inhibitory concentration.
In assay [10] the test system is Group G Streptococcus. The settings on record: read-out: Minimum inhibitory concentration.
Assay [11] deals with Porphyromonas assacharolyticus. To be noted: read-out: Minimum inhibitory concentration.
The subject of assay [12] is Prevotella denticola. To be noted: read-out: Minimum inhibitory concentration.
The subject of assay [13] is Corynebacterium jeikeium. The settings on record: read-out: Minimum inhibitory concentration.

Here are results for one compound from US20120202756A1, “USE OF PRODRUGS TO AVOID GI MEDIATED ADVERSE EVENTS” (priority 2009, published 2012).

SMILES strings stand for the structures. In brackets after ≈: the same amount, converted by molar mass.

As to `CCC[C@@H]1C[C@@H](C(=O)N[C@@H]([C@H]2O[C@H](SC)[C@H](O)[C@@H](O)[C@H]2O)[C@H](C)Cl)N(C)C1` [Clindamycin, clindamycin, reference compound], the MIC is 32 µg/mL (≈ 75.3 µM) in assay [1]; at most 0.03 µg/mL in assay [2]; at most 0.03 µg/mL in [3]; at most 0.03 µg/mL in assay [4]; at most 0.03 µg/mL in [5]; at most 0.03 µg/mL in assay [6]. Also, the MIC in [7], in assay [8], in [9], in assay [10], in [11] and in [12] was at most 0.03 µg/mL each time. Moreover, the MIC in assay [13] is over 64 µg/mL.
